Active and inactive are the calls of the source. The calls are words filed in the database; no cut-off is given here.
Tests used:
[1] = system: Epidermal growth factor receptor (Homo sapiens), P00533 [UNDEFINED MUTATION]; conditions: dose 100.0 nM
[2] = biological target: Platelet-derived growth factor receptor alpha (Homo sapiens) (UniProt P16234); test: Inhibition of PDGFR alpha (unknown origin) by HTRF assay relative to control; conditions: concentration not given here
[3] = biological target: Epidermal growth factor receptor (Homo sapiens, UniProt P00533, EX19DEL/T790M); test: Inhibition of EGFR Del19/T790M (unknown origin) preincubated for 10 mins followed by substrate addition and measured after 50 mins in presence of ATP by HTRF assay
[4] = biological target: Proto-oncogene tyrosine-protein kinase Src (Homo sapiens) (UniProt P12931); test: Inhibition of Src (unknown origin) by HTRF assay relative to control; conditions: concentration not given here
Sequence of Proto-oncogene tyrosine-protein kinase Src (Homo sapiens) (P12931 2-536 limits assumed): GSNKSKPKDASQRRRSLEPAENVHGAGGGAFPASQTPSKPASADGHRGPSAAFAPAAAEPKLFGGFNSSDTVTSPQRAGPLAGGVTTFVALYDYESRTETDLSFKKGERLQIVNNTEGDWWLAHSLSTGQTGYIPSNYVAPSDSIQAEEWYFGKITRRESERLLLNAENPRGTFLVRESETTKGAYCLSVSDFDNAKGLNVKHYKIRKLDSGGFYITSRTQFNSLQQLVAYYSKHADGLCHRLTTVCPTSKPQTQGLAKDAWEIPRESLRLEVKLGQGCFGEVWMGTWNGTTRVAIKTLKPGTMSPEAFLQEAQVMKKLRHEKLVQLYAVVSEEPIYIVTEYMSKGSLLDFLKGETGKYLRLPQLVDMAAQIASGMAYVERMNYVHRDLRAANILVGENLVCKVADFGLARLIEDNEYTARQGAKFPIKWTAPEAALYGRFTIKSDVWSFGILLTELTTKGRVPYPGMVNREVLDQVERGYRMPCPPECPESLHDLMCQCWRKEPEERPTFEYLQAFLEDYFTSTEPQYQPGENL

HCC827 [5] = test: Induction of cell cycle arrest in human HCC827 cells assessed as accumulation of cells at G0/G1 phase at 30 nM measured after 24 hrs by PI staining based flow cytometry analysis (reference value: 54.36%); type: functional
NCI-H1975 = test: Antiproliferative activity against human NCI-H1975 cells assessed as inhibition of cell growth measured after 72 hrs by MTT assay; type: functional, cell-based; conditions: NCI-H1975, 72 h
[6] = biological target: Proto-oncogene tyrosine-protein kinase ROS (Homo sapiens) (UniProt P08922); test: Inhibition of ROS (unknown origin) by HTRF assay relative to control; conditions: concentration not given here
HCC827 [7] = test: Induction of cell cycle arrest in human HCC827 cells assessed as accumulation of cells at G2/M phase at 30 nM measured after 24 hrs by PI staining based flow cytometry analysis (reference value: 16.83%); type: functional
HCC827 [8] = test: Induction of cell cycle arrest in human HCC827 cells assessed as accumulation of cells at G0/G1 phase at 100 nM measured after 24 hrs by PI staining based flow cytometry analysis (reference value: 54.36%); type: functional
[9] = system: Epidermal growth factor receptor (Homo sapiens), P00533 [UNDEFINED MUTATION]; conditions: dose 30.0 nM
[10] = biological target: T1, Epidermal growth factor receptor (Homo sapiens, UniProt P00533); test: Inhibition of wild type EGFR (unknown origin) at 100 nM preincubated for 10 mins followed by substrate addition and measured after 50 mins in presence of ATP by HTRF assay relative to control; conditions: time 60.0 min
T1 sequence (P00533 whole entry): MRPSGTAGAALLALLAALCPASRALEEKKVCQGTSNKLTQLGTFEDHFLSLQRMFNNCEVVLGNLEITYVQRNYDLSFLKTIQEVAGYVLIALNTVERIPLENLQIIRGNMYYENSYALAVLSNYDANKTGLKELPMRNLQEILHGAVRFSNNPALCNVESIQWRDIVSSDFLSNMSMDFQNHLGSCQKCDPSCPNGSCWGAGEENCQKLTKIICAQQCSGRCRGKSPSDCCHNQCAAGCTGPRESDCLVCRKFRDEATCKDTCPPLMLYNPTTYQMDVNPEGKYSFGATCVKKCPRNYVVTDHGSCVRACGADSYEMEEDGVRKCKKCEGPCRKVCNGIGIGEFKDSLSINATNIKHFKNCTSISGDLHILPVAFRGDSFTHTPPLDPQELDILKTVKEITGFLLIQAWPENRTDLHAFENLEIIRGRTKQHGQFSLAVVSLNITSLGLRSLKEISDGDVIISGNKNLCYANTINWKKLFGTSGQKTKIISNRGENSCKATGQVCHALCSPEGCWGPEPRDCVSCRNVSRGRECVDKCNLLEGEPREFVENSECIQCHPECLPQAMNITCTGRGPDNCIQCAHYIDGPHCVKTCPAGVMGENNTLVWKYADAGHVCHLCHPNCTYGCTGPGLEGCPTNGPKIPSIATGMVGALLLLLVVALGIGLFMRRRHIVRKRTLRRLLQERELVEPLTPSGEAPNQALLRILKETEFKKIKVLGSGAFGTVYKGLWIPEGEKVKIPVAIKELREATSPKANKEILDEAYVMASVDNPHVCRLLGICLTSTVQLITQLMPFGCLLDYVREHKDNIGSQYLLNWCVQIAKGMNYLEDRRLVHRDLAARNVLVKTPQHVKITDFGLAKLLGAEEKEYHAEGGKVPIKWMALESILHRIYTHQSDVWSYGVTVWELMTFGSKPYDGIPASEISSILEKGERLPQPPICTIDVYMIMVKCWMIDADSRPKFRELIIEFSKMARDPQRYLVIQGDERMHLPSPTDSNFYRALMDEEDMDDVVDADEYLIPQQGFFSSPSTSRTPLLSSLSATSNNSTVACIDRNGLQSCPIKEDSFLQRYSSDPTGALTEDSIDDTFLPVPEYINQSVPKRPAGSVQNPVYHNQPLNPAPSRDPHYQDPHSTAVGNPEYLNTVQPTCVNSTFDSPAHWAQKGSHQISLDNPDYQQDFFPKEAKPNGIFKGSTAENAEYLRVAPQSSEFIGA

[11] = Cytotoxicity against human 2BS cells assessed as inhibition of cell viability measured after 72 hrs by MTT assay; type: toxicity, cell-based
[12] = biological target: Dual specificity mitogen-activated protein kinase kinase; MEK1/2 (Homo sapiens) (UniProt P36507+Q02750); test: Inhibition of MEK1/2 (unknown origin) by HTRF assay relative to control; type: protein assay; conditions: concentration not given here
Sequence of Dual specificity mitogen-activated protein kinase kinase; MEK1/2 (Homo sapiens) (P36507 whole entry, looked up): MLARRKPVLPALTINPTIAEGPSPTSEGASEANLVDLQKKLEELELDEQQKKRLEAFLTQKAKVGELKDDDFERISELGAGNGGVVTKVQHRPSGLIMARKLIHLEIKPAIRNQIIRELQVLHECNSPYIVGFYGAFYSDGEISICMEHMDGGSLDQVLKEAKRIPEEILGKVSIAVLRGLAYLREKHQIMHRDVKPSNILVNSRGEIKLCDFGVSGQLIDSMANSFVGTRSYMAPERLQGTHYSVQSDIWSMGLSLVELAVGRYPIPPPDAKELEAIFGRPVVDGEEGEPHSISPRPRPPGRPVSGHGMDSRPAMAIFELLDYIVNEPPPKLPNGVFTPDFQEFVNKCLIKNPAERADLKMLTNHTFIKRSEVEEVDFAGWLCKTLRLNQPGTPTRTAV
Sequence of Dual specificity mitogen-activated protein kinase kinase; MEK1/2 (Homo sapiens) (Q02750 whole entry, looked up): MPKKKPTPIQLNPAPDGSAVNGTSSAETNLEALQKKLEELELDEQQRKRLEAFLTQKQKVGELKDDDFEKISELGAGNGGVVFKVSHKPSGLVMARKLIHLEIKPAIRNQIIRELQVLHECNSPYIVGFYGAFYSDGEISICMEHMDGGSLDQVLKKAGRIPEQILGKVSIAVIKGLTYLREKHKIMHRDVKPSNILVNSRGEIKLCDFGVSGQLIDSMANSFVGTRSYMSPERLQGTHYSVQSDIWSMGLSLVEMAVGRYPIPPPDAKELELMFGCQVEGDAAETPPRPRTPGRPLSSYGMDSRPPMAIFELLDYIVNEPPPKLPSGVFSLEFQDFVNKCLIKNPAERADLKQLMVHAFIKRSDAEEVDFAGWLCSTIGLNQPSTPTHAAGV

HCC827 [13] = test: Inhibition of colony formation in human HCC827 cells at 10 to 100 nM measured after 14 days by crystal violet staining based analysis; type: functional, cell-based; conditions: dose 10-100 nM, time 14.0 day
[14] = Inhibition of ERK (unknown origin) by HTRF assay relative to control; conditions: Homo sapiens; concentration not given here
[15] = biological target: Serine/threonine-protein kinase mTOR (Homo sapiens) (UniProt P42345); test: Inhibition of mTOR (unknown origin) by HTRF assay relative to control; conditions: concentration not given here
[16] = biological target: Tyrosine-protein kinase ABL1 (Homo sapiens) (UniProt P00519); test: Inhibition of Abl (unknown origin) by HTRF assay relative to control; conditions: concentration not given here
HCC827 [17] = test: Induction of cell cycle arrest in human HCC827 cells assessed as accumulation of cells at S phase at 100 nM measured after 24 hrs by PI staining based flow cytometry analysis (reference value: 28.81%); type: functional
HCC827 [18] = test: Antiproliferative activity against human HCC827 cells assessed as inhibition of cell growth measured after 72 hrs by MTT assay; type: functional, cell-based; conditions: HCC827, 72 h
[19] = Cytotoxicity against human L02 cells assessed as inhibition of cell viability measured after 72 hrs by MTT assay; type: toxicity, cell-based
[20] = biological target: Tyrosine-protein kinase BTK (Homo sapiens) (UniProt Q06187); test: Inhibition of BTK (unknown origin) by HTRF assay relative to control; conditions: concentration not given here
HCC827 [21] = test: Induction of cell cycle arrest in human HCC827 cells assessed as accumulation of cells at S phase at 30 nM measured after 24 hrs by PI staining based flow cytometry analysis (reference value: 28.81%); type: functional
[22] = biological target: T1, Epidermal growth factor receptor; test: Inhibition of wild type EGFR (unknown origin) preincubated for 10 mins followed by substrate addition and measured after 50 mins in presence of ATP by HTRF assay
[23] = biological target: RAF proto-oncogene serine/threonine-protein kinase (Homo sapiens) (UniProt P04049); test: Inhibition of c-RAF (unknown origin) by HTRF assay relative to control; conditions: concentration not given here
HCC827 [24] = test: Induction of cell cycle arrest in human HCC827 cells assessed as accumulation of cells at S phase at 10 nM measured after 24 hrs by PI staining based flow cytometry analysis (reference value: 28.81%); type: functional
A549 = test: Antiproliferative activity against human A549 cells assessed as inhibition of cell growth measured after 72 hrs by MTT assay; type: functional, cell-based; conditions: A549, 72 h
[25] = biological target: Epidermal growth factor receptor (Homo sapiens, UniProt P00533, C797S/EX19DEL/T790M); test: Inhibition of EGFR Del19/T790M/C797S triple mutant (unknown origin) preincubated for 10 mins followed by substrate addition and measured after 50 mins in presence of ATP by HTRF assay
HCC827 [26] = test: Induction of cell cycle arrest in human HCC827 cells assessed as accumulation of cells at G0/G1 phase at 10 nM measured after 24 hrs by PI staining based flow cytometry analysis (reference value: 54.36%); type: functional
Homo sapiens [27] = organism: Homo sapiens; test: Inhibition of Akt (unknown origin) by HTRF assay relative to control; conditions: concentration not given here
Homo sapiens [28] = organism: Homo sapiens; test: Inhibition of VGFR (unknown origin) by HTRF assay relative to control; conditions: concentration not given here
HCC827 [29] = test: Induction of cell cycle arrest in human HCC827 cells assessed as accumulation of cells at G2/M phase at 10 nM measured after 24 hrs by PI staining based flow cytometry analysis (reference value: 16.83%); type: functional
[30] = biological target: Mast/stem cell growth factor receptor Kit (Homo sapiens) (UniProt P10721); test: Inhibition of c-kit (unknown origin) by HTRF assay relative to control; conditions: concentration not given here
[31] = biological target: Insulin-like growth factor 1 receptor (Homo sapiens) (UniProt P08069); test: Inhibition of IGF-1R (unknown origin) by HTRF assay relative to control; conditions: concentration not given here
[32] = biological target: Epidermal growth factor receptor (Homo sapiens, UniProt P00533, C797S/L858R/T790M); test: Inhibition of EGFR L858R/T790M/C797S triple mutant (unknown origin) preincubated for 10 mins followed by substrate addition and measured after 50 mins in presence of ATP by HTRF assay
Sequence of Epidermal growth factor receptor (Homo sapiens, UniProt P00533, C797S/L858R/T790M) (P00533 25-1210 T790M/C797S/L858R limits assumed): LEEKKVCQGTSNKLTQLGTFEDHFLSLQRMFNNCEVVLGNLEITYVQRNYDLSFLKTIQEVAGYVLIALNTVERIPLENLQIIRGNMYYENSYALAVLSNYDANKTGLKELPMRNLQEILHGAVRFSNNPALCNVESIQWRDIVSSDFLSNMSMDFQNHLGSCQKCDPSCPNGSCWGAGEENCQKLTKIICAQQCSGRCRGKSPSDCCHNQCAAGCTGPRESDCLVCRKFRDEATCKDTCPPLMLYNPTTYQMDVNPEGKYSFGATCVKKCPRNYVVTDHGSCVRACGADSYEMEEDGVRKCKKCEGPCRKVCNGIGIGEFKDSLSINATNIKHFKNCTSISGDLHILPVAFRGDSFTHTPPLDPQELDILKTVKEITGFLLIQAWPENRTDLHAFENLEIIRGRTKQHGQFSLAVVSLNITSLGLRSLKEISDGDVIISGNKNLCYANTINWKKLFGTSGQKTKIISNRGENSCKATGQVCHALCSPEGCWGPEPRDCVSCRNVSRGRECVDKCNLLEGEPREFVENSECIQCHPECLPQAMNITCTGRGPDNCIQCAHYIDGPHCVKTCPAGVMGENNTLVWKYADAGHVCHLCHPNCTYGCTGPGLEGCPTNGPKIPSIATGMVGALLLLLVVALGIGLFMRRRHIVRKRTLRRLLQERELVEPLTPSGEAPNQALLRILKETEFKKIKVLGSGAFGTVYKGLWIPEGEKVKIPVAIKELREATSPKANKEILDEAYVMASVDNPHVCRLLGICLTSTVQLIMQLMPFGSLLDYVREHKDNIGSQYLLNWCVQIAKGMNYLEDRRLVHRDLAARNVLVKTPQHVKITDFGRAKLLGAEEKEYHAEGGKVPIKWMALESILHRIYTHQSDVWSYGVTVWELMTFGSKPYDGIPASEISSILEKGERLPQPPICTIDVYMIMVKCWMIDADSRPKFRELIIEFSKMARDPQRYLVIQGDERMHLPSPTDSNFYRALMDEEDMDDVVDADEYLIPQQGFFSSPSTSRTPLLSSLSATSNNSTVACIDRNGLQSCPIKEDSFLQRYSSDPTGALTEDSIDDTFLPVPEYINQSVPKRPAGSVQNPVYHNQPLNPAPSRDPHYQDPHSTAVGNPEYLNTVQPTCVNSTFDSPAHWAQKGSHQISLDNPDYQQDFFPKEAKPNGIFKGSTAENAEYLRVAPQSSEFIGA

Homo sapiens [33] = organism: Homo sapiens; test: Inhibition of FGFR (unknown origin) by HTRF assay relative to control; conditions: concentration not given here
HCC827 [34] = test: Induction of cell cycle arrest in human HCC827 cells assessed as accumulation of cells at G2/M phase at 100 nM measured after 24 hrs by PI staining based flow cytometry analysis (reference value: 16.83%); type: functional
[35] = biological target: Epidermal growth factor receptor (Homo sapiens, UniProt P00533, L858R/T790M); test: Inhibition of EGFR L858R/T790M (unknown origin) preincubated for 10 mins followed by substrate addition and measured after 50 mins in presence of ATP by HTRF assay

Sequence of Epidermal growth factor receptor (Homo sapiens), P00533 [UNDEFINED MUTATION] (P00533 whole entry, looked up, stated change not applied): as the sequence (P00533 whole entry) above

## O=C(NO)c1ccsc1Nc1nc(Nc2ccc(N3CCOCC3)cc2)ncc1Cl
[1]
  inhibition: 73.3%
[2]
  inhibition: < 70%
[3]
  IC50: 0.897 µM
[4]
  inhibition: < 70%
HCC827 [5]
  Activity: 65.79%
NCI-H1975
  IC50: 0.135 µM
[6]
  inhibition: < 70%
HCC827 [7]
  Activity: 20.13%
HCC827 [8]
  Activity: 59.28%
[9]
  inhibition: 47.8%
[10]
  inhibition: 83.6%
[11]
  IC50 at 72 h: 15.2 µM
[12]
  inhibition: < 70%
HCC827 [13]
  inhibition: Active
[14]
  inhibition: < 70%
[15]
  inhibition: < 70%
[16]
  inhibition: < 70%
HCC827 [17]
  Activity: 15.6%
HCC827 [18]
  IC50: 0.031 µM
[19]
  IC50 at 72 h: 5.03 µM
[20]
  inhibition: < 70%
HCC827 [21]
  Activity: 14.08%
[22]
  IC50: 0.0344 µM
[23]
  inhibition: < 70%
HCC827 [24]
  Activity: 20.21%
A549
  IC50: 0.23 µM
[25]
  IC50: 0.0379 µM
HCC827 [26]
  Activity: 64.32%
Homo sapiens [27]
  inhibition: < 70%
Homo sapiens [28]
  inhibition: < 70%
HCC827 [29]
  Activity: 15.47%
[30]
  inhibition: < 70%
[31]
  inhibition: < 70%
[32]
  IC50: 0.0267 µM
Homo sapiens [33]
  inhibition: < 70%
HCC827 [34]
  Activity: 25.12%
[35]
  IC50: 0.0723 µM

Source: ChEMBL document CHEMBL5518185, “Design, synthesis and antitumor activity of 4-arylamine substituted pyrimidine derivatives as noncovalent EGFR inhibitors overcoming C797S mutation” (Eur J Med Chem, 2024)
